Test results published in paper PMC10035947, “Development of novel anilinoquinazoline-based carboxylic acids as non-classical carbonic anhydrase IX and XII inhibitors” (Journal of Enzyme Inhibition and Medicinal Chemistry, 2023).

Columns and labels:
NCI-H322M = experiment: NCI SRB assay; assay type: cell-based, human
SF-268 = experiment: NCI SRB assay; assay type: cell-based, human
HT29 = experiment: NCI SRB assay; assay type: cell-based, human
SNB-75 = experiment: NCI SRB assay; assay type: cell-based, human
SNB-19 = experiment: NCI SRB assay; assay type: cell-based, human
IGROV1 = experiment: NCI SRB assay; assay type: cell-based, human
UACC-62 = experiment: NCI SRB assay; assay type: cell-based, human
U251 = experiment: NCI SRB assay; assay type: cell-based, human
[1] = system: 59 human cancer cell lines representing nine tumour subpanels; experiment: NCI SRB assay, panel and subpanel summaries; settings: all cell lines
TK-10 = experiment: NCI SRB assay; assay type: cell-based, human
SF-539 = experiment: NCI SRB assay; assay type: cell-based, human
HCC-2998 = experiment: NCI SRB assay; assay type: cell-based, human
COLO 205 = experiment: NCI SRB assay; assay type: cell-based, human
RPMI-8226 = experiment: NCI SRB assay; assay type: cell-based, human
CAKI-1 = experiment: NCI SRB assay; assay type: cell-based, human
MDA-MB-435 = experiment: NCI SRB assay; assay type: cell-based
SK-MEL-2 = experiment: NCI SRB assay; assay type: cell-based, human
HOP-92 = experiment: NCI SRB assay; assay type: cell-based, human
KM12 = experiment: NCI SRB assay; assay type: cell-based, human
HL-60(TB) = experiment: NCI SRB assay; assay type: cell-based, human; settings: HL-60(TB)
ACHN = experiment: NCI SRB assay; assay type: cell-based, human
HS 578 T = experiment: NCI SRB assay; assay type: cell-based, human
HCT-15 = experiment: NCI SRB assay; assay type: cell-based, human
SK-MEL-28 = experiment: NCI SRB assay; assay type: cell-based, human
T-47D = experiment: NCI SRB assay; assay type: cell-based, human
UACC-257 = experiment: NCI SRB assay; assay type: cell-based, human
OVCAR-4 = experiment: NCI SRB assay; assay type: cell-based, human
NCI-H460 = experiment: NCI SRB assay; assay type: cell-based, human

Compound: Cc1ccc(-c2nc(Nc3ccc(C(=O)O)cc3)c3ccccc3n2)cc1 [8b, 4-((2-(p-Tolyl)quinazolin-4-yl)amino)benzoic acid]
- GI% (NCI-H322M; 10 μM): – (Only GI% higher than 20% are shown)
- Growth Percent (NCI-H322M; 1.00E-5 Molar): 84.20%
- GI% (SF-268; SF-268, 10 μM): 30%
- Growth Percent (SF-268; SF-268, 1.00E-5 Molar): 70.34%
- GI% (HT29; HT29, 10 μM): – (Only GI% higher than 20% are shown)
- Growth Percent (HT29; HT29, 1.00E-5 Molar): 87.37%
- GI% (SNB-75; SNB-75, 10 μM): – (Only GI% higher than 20% are shown)
- Growth Percent (SNB-75; SNB-75, 1.00E-5 Molar): 95.80%
- GI% (SNB-19; SNB-19, 10 μM): 29%
- Growth Percent (SNB-19; SNB-19, 1.00E-5 Molar): 70.92%
- GI% (IGROV1; IGROV1, 10 μM): – (Only GI% higher than 20% are shown)
- Growth Percent (IGROV1; IGROV1, 1.00E-5 Molar): 92.17%
- GI% (UACC-62; UACC-62, 10 μM): – (Only GI% higher than 20% are shown)
- Growth Percent (UACC-62; UACC-62, 1.00E-5 Molar): 95.83%
- GI% (U251; U251, 10 μM): – (Only GI% higher than 20% are shown)
- Growth Percent (U251; U251, 1.00E-5 Molar): 86.94%
- Mean GI % ([1]; 10 μM): 20%
- Mean Growth Percent ([1]; 1.00E-5 Molar): 80.19%
- GI% (TK-10; TK-10, 10 μM): – (Only GI% higher than 20% are shown)
- Growth Percent (TK-10; TK-10, 1.00E-5 Molar): 113.38%
- GI% (SF-539; SF-539, 10 μM): 21%
- Growth Percent (SF-539; SF-539, 1.00E-5 Molar): 78.63%
- GI% (HCC-2998; HCC-2998, 10 μM): 28%
- Growth Percent (HCC-2998; HCC-2998, 1.00E-5 Molar): 72.45%
- GI% (COLO 205; COLO 205, 10 μM): – (Only GI% higher than 20% are shown)
- Growth Percent (COLO 205; COLO 205, 1.00E-5 Molar): 109.50%
- GI% (RPMI-8226; RPMI-8226, 10 μM): 45%
- Growth Percent (RPMI-8226; RPMI-8226, 1.00E-5 Molar): 55.07%
- GI% (CAKI-1; CAKI-1, 10 μM): – (Only GI% higher than 20% are shown)
- Growth Percent (CAKI-1; CAKI-1, 1.00E-5 Molar): 88.42%
- GI% (MDA-MB-435; MDA-MB-435, 10 μM): – (Only GI% higher than 20% are shown)
- Growth Percent (MDA-MB-435; MDA-MB-435, 1.00E-5 Molar): 100.06%
- GI% (SK-MEL-2; SK-MEL-2, 10 μM): – (Only GI% higher than 20% are shown)
- Growth Percent (SK-MEL-2; SK-MEL-2, 1.00E-5 Molar): 113.45%
- GI% (HOP-92; HOP-92, 10 μM): 25%
- Growth Percent (HOP-92; HOP-92, 1.00E-5 Molar): 75.22%
- GI% (KM12; KM12, 10 μM): 42%
- Growth Percent (KM12; KM12, 1.00E-5 Molar): 57.97%
- GI% (HL-60(TB); 10 μM): 24%
- Growth Percent (HL-60(TB); 1.00E-5 Molar): 76.30%
- GI% (ACHN; 10 μM): 24%
- Growth Percent (ACHN; 1.00E-5 Molar): 75.90%
- GI% (HS 578 T; HS 578 T, 10 μM): 32%
- Growth Percent (HS 578 T; HS 578T, 1.00E-5 Molar): 67.76%
- GI% (HCT-15; HCT-15, 10 μM): 49%
- Growth Percent (HCT-15; HCT-15, 1.00E-5 Molar): 50.85%
- GI% (SK-MEL-28; SK-MEL-28, 10 μM): – (Only GI% higher than 20% are shown)
- Growth Percent (SK-MEL-28; SK-MEL-28, 1.00E-5 Molar): 84.51%
- GI% (T-47D; 10 μM): 32%
- Growth Percent (T-47D; 1.00E-5 Molar): 68.59%
- GI% (UACC-257; UACC-257, 10 μM): – (Only GI% higher than 20% are shown)
- Growth Percent (UACC-257; UACC-257, 1.00E-5 Molar): 107.52%
- GI% (OVCAR-4; OVCAR-4, 10 μM): 26%
- Growth Percent (OVCAR-4; OVCAR-4, 1.00E-5 Molar): 74.11%
- GI% (NCI-H460; NCI-H460, 10 μM): – (Only GI% higher than 20% are shown)
- Growth Percent (NCI-H460; NCI-H460, 1.00E-5 Molar): 82.06%
